Test results published in ChEMBL document CHEMBL5357031, “Design and Synthesis of Cytotoxic Water-Soluble Rocaglaol Derivatives against HEL Cells by Inhibiting Fli-1” (J Nat Prod, 2024).
Calls of active or inactive are those of the source.

Experiments:
HEL [1] = assay: Induction of apoptosis in HEL cells assessed as upregulation of cleaved caspase-3 expression at 0.1 to 0.4 uM incubated for 48 hrs by Western blot analysis; assay type: functional, cell-based; conditions: Homo sapiens, dose 0.1-0.4 µM
HEL [2] = assay: Induction of apoptosis in HEL cells assessed as downregulation of caspase-9 expression at 0.1 to 0.4 uM incubated for 48 hrs by Western blot analysis; assay type: functional, cell-based; conditions: Homo sapiens, dose 0.1-0.4 µM
[3] = target: T1, Friend leukemia integration 1 transcription factor (Homo sapiens) (UniProt Q01543); assay: Inhibition of Fli-1 in HEL cells by Western blot analysis; assay type: cell-based; conditions: dose 0.1-0.4 µM
T1 sequence (whole entry): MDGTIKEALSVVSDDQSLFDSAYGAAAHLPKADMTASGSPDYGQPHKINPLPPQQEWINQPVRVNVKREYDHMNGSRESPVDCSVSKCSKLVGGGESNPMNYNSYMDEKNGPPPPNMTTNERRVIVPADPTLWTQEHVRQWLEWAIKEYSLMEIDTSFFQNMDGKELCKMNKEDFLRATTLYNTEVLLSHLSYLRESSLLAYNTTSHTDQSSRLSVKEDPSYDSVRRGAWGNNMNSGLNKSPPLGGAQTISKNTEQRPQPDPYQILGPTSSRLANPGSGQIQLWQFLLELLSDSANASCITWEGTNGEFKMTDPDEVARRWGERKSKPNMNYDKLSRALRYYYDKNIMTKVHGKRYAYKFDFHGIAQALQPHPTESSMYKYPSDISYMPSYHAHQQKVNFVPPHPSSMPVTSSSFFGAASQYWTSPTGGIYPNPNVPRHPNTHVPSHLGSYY

HEL [4] = assay: Induction of apoptosis in HEL cells assessed as upregulation of cleaved PARP expression at 0.1 to 0.4 uM incubated for 48 hrs by Western blot analysis; assay type: functional, cell-based; conditions: Homo sapiens, dose 0.1-0.4 µM
HEL [5] = assay: Induction of apoptosis in HEL cells assessed as upregulation of cleaved caspase-9 expression at 0.1 to 0.4 uM incubated for 48 hrs by Western blot analysis; assay type: functional, cell-based; conditions: Homo sapiens, dose 0.1-0.4 µM
HEL [6] = assay: Induction of apoptosis in HEL cells assessed as downregulation of PARP expression at 0.1 to 0.4 uM incubated for 48 hrs by Western blot analysis; assay type: functional, cell-based; conditions: Homo sapiens, dose 0.1-0.4 µM
[7] = target: T1, Friend leukemia integration 1 transcription factor (Homo sapiens); assay: Binding affinity to Fli-1 in HEL cells assessed as increase in thermal stability at 0.4 uM preincubated for 1 hr followed by heating at 40 to 60 degreeC by CETSA assay; assay type: cell-based
HEL [8] = assay: Induction of apoptosis in HEL cells assessed as downregulation of caspase-3 expression at 0.1 to 0.4 uM incubated for 48 hrs by Western blot analysis; assay type: functional, cell-based; conditions: Homo sapiens, dose 0.1-0.4 µM

COc1cc(OC)c2c(c1)O[C@@]1(c3ccc(OCCCCCN4CCN(C)CC4)cc3)[C@H](c3ccccc3)C[C@@H](O)[C@@]21O (racemic; form 2)
active: Activity (HEL [1]) | Activity (HEL [2]) | inhibition [3] Dose-Dependent Effect | Activity (HEL [4]) | Activity (HEL [5]) | Activity (HEL [6]) | Activity [7] | Activity (HEL [8])
